In data set [1] the test system is HEK293 cells. Nature of the data set: NPC1 protein expression in HEK293 cells transfected with viral genome constructs (ELISA and Western Blot, normalized to GAPDH and transfection efficiency). Format: cell-based. The settings on record: for % over Ref. (% overexpression compared to that of the reference ITR_ITR 2): transfection, NPC1 protein vs reference ITR_ITR 2 (SEQ ID NO: 1753), Table 6; for NPC1 expression normalized to GAPDH and transfection efficiency: EF-1a promoter variants with wtNPC1, FIG. 2. From the text:
The viral genome constructs encoding NPC1 generated, and investigated for expression of NPC1 protein in vitro. Use of different promoters (e.g., CBA promoters or variants thereof, CMV promoters and variants thereof, EF1a promoter variants) and/or codon optimized nucleotide sequences encoding the NPC1 protein (e.g., SEQ ID NO: 1750 or SEQ ID NO: 1749) (Table 6). An additional set of viral genome constructs were also investigated, testing different combinations of promoters and codon optimized sequences (Tables 7, 9 and 10).
In order to assess NPC1 expression, the viral genome constructs comprising a promoter operably linked to a transgene encoding were transfected into HEK293 cells. NPC1 protein level was determined by ELISA and Western Blot, and normalized to GAPDH control and transfection efficiency. The expression of NPC1 was calculated as percent overexpression relative to the reference construct (ITR_ITR 2 (SEQ ID NO: 1753) which comprises promoter variant 8 (SEQ ID NO: 1782) and the wild-type nucleotide sequence encoding NPC1 (SEQ ID NO: 1747)) (% over reference or % overexpression to reference).
Table 9 summarizes the constructs tested that comprise promoter variant 11 (SEQ ID NO: 1785), promoter variant 13 (SEQ ID NO: 1787), promoter variant 15 (SEQ ID NO: 1789), or promoter variant 18 (SEQ ID NO: 1791), operably linked to a transgene encoding NPC1 (wild-type or codon optimized nucleotide sequences encoding NPC1). These constructs were transfected into HEK293 cells, and the NPC1 protein expression was measured by ELISA and/or western blot and normalized to expression of a GAPDH control and transfection efficiency. The percent overexpression compared to a reference construct (ITR_ITR2 (SEQ ID NO: 1753), which comprises promoter variant 8 (SEQ ID NO: 1782) and the wild-type nucleotide sequence encoding NPC1 (SEQ ID NO: 1747)) was then calculated for each construct tested (% overexpression to reference) (Table 9, FIGS. 2-3).
For orientation: In an ELISA, binding on a coated surface is turned into a signal by an enzyme label.

Data set [2] deals with animal models of NPC disease. To be noted: biweekly intrathecal (IT) injection; cited from earlier work.
The subject of data set [3] is NPC1 patient fibroblasts. Kind of data set: NPC1 protein expression in NPC1 patient fibroblasts. Format: cell-based, human. The settings on record: transduced, FIG. 10B. From the text: NPC1/2 is overexpressed in HEK 293 cells using the AAV vector of Example 1 or other method of transfection. Western Blot and ELISA detection protocols are optimized using routine experimentation to establish assays for NPC1/2 protein detection. These and additional biochemical studies are used to validate assays and establish cell lines for additional in vitro analysis. For example, Western Blot and ELISA assays can be performed and optimized using fibroblast cell lines, which may be obtained from Coriell Institute (Camden, N.J., United States). Fibroblast cell lines can be from healthy individual donors (e.g., Coriell catalog nos. GM00038, GM00302, GM00500, GM00969, and/or GM05758—referred to respectively herein as H1, H2, H3, H4, and H5 cell lines) or from diagnosed Niemann-Pick Disease, Type C1 patient donors (e.g., Coriell catalog nos. GM00110, GM03123, GM18436, and/or GM23162 referred to respectively herein as N1, N2, N3, and N4 cell lines).
NPC1 protein expression was assessed in healthy and NPC1 patient fibroblasts according to the assays described in Example 2. […] ITR_ITR 1 rescued NPC1 protein to near 100% relative to healthy fibroblasts. ITR_ITR 3 and ITR_ITR 5 rescued NPC1 protein to 100% or greater relative to healthy fibroblasts. […]

Data set [4] deals with human neuronal cells. Kind of data set: NPC1 protein expression in human neuronal cells. Format: cell-based. To be noted: human neurons, transduced; FIG. 10A. From the text: Cell-lines and reagents: Standard cell-lines are used for initial screening. This includes lines from multiple species to align with in vivo studies. Since transduction of both neuronal and non-neuronal cell types are needed in vivo, two neuronal and two non-neuronal cell types are used for in vitro screening. These cell lines include naïve neuronal SK-N-AS cells (procured from ATCC), primary neuronal cultures from NPC1^−/− mice (see below), immortalized human hepatocytes (procured from Creative Bioarray or ATCC), NPC1 patient fibroblasts (procured from Coriell) and/or iPS Cells derived from NPC1 patients (Yu, Xiao-Hua, et al. “NPC1, intracellular cholesterol trafficking and atherosclerosis.”Clinica chimica acta 429 (2014): 69-75, the disclosure of which is incorporated by reference in its entirety). Example cell lines for use in assays described herein include fibroblast cell lines, which may be procured from Coriell Institute (Camden, N.J., United States). […]
NPC1 protein expression was further assessed for constructs ITR_ITR 2, ITR_ITR 1, ITR_ITR 3, ITR_ITR 4, and ITR_ITR 5 (SEQ ID NOs: 1753, 1752, and 1754-1756, respectively) in hepatocytes (FIG. 5, left graph) and constructs ITR_ITR 2, ITR_ITR 1, ITR_ITR 3, ITR_ITR 4, ITR_ITR 5, ITR_ITR 6, and ITR_ITR 7 (SEQ ID NOs: 1753, 1752, and 1754-1758, respectively) in human neuronal cells (FIG. 5, right graph). […]

The mark [5] stands for this setting: % overexpression vs reference, Table 8.

Turning to “ITR_ITR 7: Viral genome SEQ ID NO: 1758: short CBA promoter (SEQ ID NO: 1735); WT NPC1 protein coding sequence”, the “% over Ref. (% overexpression compared to that of the reference ITR_ITR 2)” value in data set [1] is −15%. With 2-hydroxypropyl-β-cyclodextrin, the “efficacy in animal models of NPC disease” value in data set [2] is “effectively delay the onset of neurological signs, ameliorate cerebellar and liver dysfunction, and prolong lifespan”.

Take `CCCCN1C[C@H](O)[C@@H](O)[C@H](O)[C@H]1CO` [Miglustat]: the “efficacy in animal models of NPC disease” value in data set [2] was “effectively delay the onset of neurological signs, ameliorate cerebellar and liver dysfunction, and prolong lifespan”. On to “ITR_ITR 41: Viral genome SEQ ID NO: 1833: CMVie enhancer (SEQ ID NO: 1737); short CBA promoter; WT NPC1 protein coding sequence”, for which the “% over Ref. (% overexpression compared to that of the reference ITR_ITR 2)” value in data set [1] was 165%. As for “wtNPC1: Wild type Human NPC1 Coding Sequence, SEQ ID NO: 1747 [reference compound]”, in data set [1] (setting [5]), the “NPC1 expression, CBA promoter with intron” value is 72%; the “NPC1 expression, CBA promoter without intron” value is listed as −15%; the “NPC1 expression, CMV promoter with intron” value was determined as 356%; the “NPC1 expression, CMV promoter without intron” value was found to be 203%. For the same molecule, the “NPC1 expression, Promoter Variant 8 (SEQ ID NO: 1782) with intron” value in data set [1] (setting [5]) was 311%.

B1: Promoter Variant 15: EF-1a promoter variant, 252 nt, SEQ ID NO: 1789 (nucleic acid)
DNA: GGTGGAGAAGAGCATGCGTGAGGCTCCGGTGCCCGTCAGTGGGCAGAGCGCACATCGCCCACAGTCCCCGAGAAGTTGGGGGGAGGGGTCGGCAATTGAACCGGTGCCTAGAGAAGGTGGCGCGGGGTAAACTGGGAAAGTGATGTCGTGTACTGGCTCCGCCTTTTTCCCGAGGGTGGGGGAGAACCGTATATAAGTGCAGTAGTCGCCGTGAACGTTCTTTTTCGCAACGGGTTTGCCGCCAGAACACAG
On to B1, for which the “NPC1 expression normalized to GAPDH and transfection efficiency” value (from here on “NPC1 expression normalized”) in data set [1] is listed as “increased NPC1 expression relative to the ITR_ITR 2 reference construct”.

B2: CMV promoter: short CMV promoter, 205 nt, SEQ ID NO: 1736 (nucleic acid)
DNA: GTGATGCGGTTTTGGCAGTACATCAATGGGCGTGGATAGCGGTTTGACTCACGGGGATTTCCAAGTCTCCACCCCATTGACGTCAATGGGAGTTTGTTTTGGCACCAAAATCAACGGGACTTTCCAAAATGTCGTAACAACTCCGCCCCATTGACGCAAATGGGCGGTAGGCGTGTACGGTGGGAGGTCTATATAAGCAGAGCTC
Turning to B2, in data set [3], the “NPC1 expression (NPC1/B-actin)” value was “increased expression of NPC1 compared to Promoter Variant 11”.

B3: Promoter Variant 13: EF-1a promoter variant, 241 nt, SEQ ID NO: 1787 (nucleic acid)
DNA: GCATGCGTGAGGCTCCGGTGCCCGTCAGTGGGCAGAGCGCACATCGCCCACAGTCCCCGAGAAGTTGGGGGGAGGGGTCGGCAATTGAACCGGTGCCTAGAGAAGGTGGCGCGGGGTAAACTGGGAAAGTGATGTCGTGTACTGGCTCCGCCTTTTTCCCGAGGGTGGGGGAGAACCGTATATAAGTGCAGTAGTCGCCGTGAACGTTCTTTTTCGCAACGGGTTTGCCGCCAGAACACAG
Turning to B3, the “NPC1 expression normalized” value in data set [1] was “increased NPC1 expression relative to the ITR_ITR 2 reference construct”.

B4: Promoter Variant 11: EF-1a promoter variant, 236 nt, SEQ ID NO: 1785 (nucleic acid)
DNA: CGTGAGGCTCCGGTGCCCGTCAGTGGGCAGAGCGCACATCGCCCACAGTCCCCGAGAAGTTGGGGGGAGGGGTCGGCAATTGAACCGGTGCCTAGAGAAGGTGGCGCGGGGTAAACTGGGAAAGTGATGTCGTGTACTGGCTCCGCCTTTTTCCCGAGGGTGGGGGAGAACCGTATATAAGTGCAGTAGTCGCCGTGAACGTTCTTTTTCGCAACGGGTTTGCCGCCAGAACACAG
Regarding B4, the “NPC1 expression normalized” value in data set [1] was “increased NPC1 expression relative to the ITR_ITR 2 reference construct”. Moreover, the “NPC1 expression (NPC1/B-actin)” value in data set [4] was “increased expression of NPC1 compared to the CMV promoter”.

B5: Promoter Variant 18: EF-1a promoter variant, 263 nt, SEQ ID NO: 1791 (nucleic acid)
DNA: GTCATCACTGAGGTGGAGAAGAGCATGCGTGAGGCTCCGGTGCCCGTCAGTGGGCAGAGCGCACATCGCCCACAGTCCCCGAGAAGTTGGGGGGAGGGGTCGGCAATTGAACCGGTGCCTAGAGAAGGTGGCGCGGGGTAAACTGGGAAAGTGATGTCGTGTACTGGCTCCGCCTTTTTCCCGAGGGTGGGGGAGAACCGTATATAAGTGCAGTAGTCGCCGTGAACGTTCTTTTTCGCAACGGGTTTGCCGCCAGAACACAG
On to B5, for which, in data set [1], the “NPC1 expression normalized” value was “increased NPC1 expression relative to the ITR_ITR 2 reference construct”.

Values taken from patent US20230285596A1, “COMPOSITIONS AND METHODS FOR THE TREATMENT OF NIEMANN-PICK TYPE C1 DISEASE” (Voyager Therapeutics, Inc, priority 2020, published 2023).
